Data as given in US6506876B1, “LTA4 hydrolase inhibitor pharmaceutical compositions and methods of use” (G.D. Searle & Co., priority 1994, dated 2003).
Read-outs that look alike come from different tables or passages of the source.

Legend:
[1] = test system: LTB4 production in mouse blood (LTA4 hydrolase); test: Ex vivo LTB4 production by calcium ionophore stimulated mouse blood after oral dosing; format: in vivo
Method: Ex Vivo LTB4 and Thromboxane Production by Calcium Ionophore Stimulated Mouse Blood for LTA4 Hydrolase Inhibitor Activity
Leukotriene A4 hydrolase inhibitor compounds of the present invention were diluted to a predetermined concentration in phosphate buffered saline containing 2% DMSO and 1% Tween 80. The compounds were administered by oral gavage to adult male outbred mice weighing approximately 20-30 gm at a dose of 10 mg/kg body weight. (Compounds given at a dose of 50 mg/kg body weight are designtated in following Table by the symbol, *.) Sixty (60) minutes after administration of an LTA4 inhibitor compound of the invention, blood was collected (into heparin-containing tubes) from the retroorbital sinus. […] The mixture was incubated for 10 minutes at 37° C. in a humidified incubator. The reaction was terminated by centrifugation (833 g, 10 minutes at 4° C.). Supernatants were analyzed for LTB4 and thromboxane by commercially available enzyme-linked immunoassays (Caymen Chemical Co., Ann Arbor, Mich.] in accordance with the manufacturer's instructions. The percent inhibition was determined by comparison to animals treated identically except that the solution admininstered by oral gavage was devoid of inhibitor compound.

[2] = molecular target: T1, recombinant human LTA4 hydrolase (rhLTA4H) (Homo sapiens, UniProt P09960); test: Recombinant human LTA4 hydrolase assay for LTA4 hydrolase inhibitor activity; settings: Recombinant Human LTA4 Hydrolase Assay IC50 LTA4H
T1 sequence (P09960 1-611): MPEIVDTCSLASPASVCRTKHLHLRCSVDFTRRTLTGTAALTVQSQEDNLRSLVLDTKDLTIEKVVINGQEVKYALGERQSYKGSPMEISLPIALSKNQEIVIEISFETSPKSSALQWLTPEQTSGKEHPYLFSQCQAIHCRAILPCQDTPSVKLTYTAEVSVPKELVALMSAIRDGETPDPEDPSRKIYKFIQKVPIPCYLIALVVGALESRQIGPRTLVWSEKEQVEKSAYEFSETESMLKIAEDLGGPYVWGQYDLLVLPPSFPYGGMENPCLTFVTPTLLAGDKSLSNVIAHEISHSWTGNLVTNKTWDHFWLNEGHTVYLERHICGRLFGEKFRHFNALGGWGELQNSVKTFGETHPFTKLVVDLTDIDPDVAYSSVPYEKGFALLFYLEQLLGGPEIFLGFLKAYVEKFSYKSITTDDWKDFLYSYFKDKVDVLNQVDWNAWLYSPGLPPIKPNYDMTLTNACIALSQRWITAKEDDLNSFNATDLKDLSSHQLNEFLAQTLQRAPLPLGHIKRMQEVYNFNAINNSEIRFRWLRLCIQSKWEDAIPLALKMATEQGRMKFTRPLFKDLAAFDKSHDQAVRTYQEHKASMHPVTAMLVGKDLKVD
Method: One or more predetermined amounts of a compound of the invention were incubated in assay buffer (0.1 M potassium phosphate, 5 mg/ml fatty acid free BSA, 10% DMSO, pH 7.4) for 10 minutes at room temperature with 250 ng of recombinant hLTA4H to allow binding, if any, between the enzyme and inhibitor. The stock enzyme solution was 1 mg/ml LTA4 hydrolase, 50 mM Tris, pH 8.0, 150 mM NaCl, 2.5 mM beta-mercaptoethanol, 50% glycerol. […] Each reaction was carried out at room temperature for 10 minutes. The reaction was stopped by diluting 25 μl of the reaction mixture with 500 μl of the assay buffer without DMSO. LTB4 was quantified in the diluted sample by a commercially available enzyme-linked immunoassay [Caymen Chemical Co., Ann Arbor, Mich.] using the method recommended in the manufacturer's instructions and compared to the amount of LTB4 produced in a negative control (i.e., essentially identical conditions except without addition of an inhibitor compound). The IC50 was routinely calculated from the data produced.

[3] = mouse, oral gavage, 1 hour after administration of 10 mg/kg; read-out: Murine Ex Vivo LTB4 Inhibition % I LTB4
[4] = Mus musculus, po, 1 h, read-out: Murine Ex Vivo LTB4 Inhibition % I LTB4
[5] = mouse, oral gavage, 1 hour after administration of 50 mg/kg (*); read-out: Murine Ex Vivo LTB4 Inhibition % I LTB4
[6] = Mus musculus, po, 1 h; read-out: Murine Ex Vivo LTB4 Inhibition % I LTB4

Compound | inhibition in vivo at 10 mg/kg [1, 3] [%] | IC50 ([2]; recombinant hLTA4H) [nM] | further results
c1ccc(COc2ccc(OCCn3cnc4cnccc43)cc2)cc1 [347 B] | 43 | 1900 | 
COC(=O)CCN(C)CCCOc1ccc(Cc2ccsc2)cc1 [Example 330] |  | 900 | inhibition in vivo at 10 mg/kg [1, 4]: 95%
c1ccc(Cc2ccc(OCCCn3cnc4ncccc43)cc2)cc1 [341 B] | 29 | 140 | 
OCC1CCCN1CCOc1ccc(Cc2ccccc2)cc1 (centres unmarked) [Example 385] | 32 | 140 | 
O=C(OCc1ccccc1)C1CCCN1CCCOc1ccc(Cc2ccccc2)cc1 (centres unmarked) [Example 258] |  | 1250 | inhibition in vivo at 50 mg/kg [1, 5]: 81%
c1csc(COc2ccc(OCCN3CCCC3)cc2)c1 [Example 215] |  | 85 | inhibition in vivo at 50 mg/kg [1, 5]: 33%
Fc1cccc(Cc2ccc(OCCN3CCCC3)cc2)c1 [Example 142] | 32 | 37 | 
NC(=O)C1CCN(CC2CCc3cc(Cc4ccccc4)ccc3O2)CC1 (centres unmarked) [Example 293] | 93 | 480 | 
Clc1ccccc1COc1ccc(OCCN2CCCC2)cc1 [Example 208] | 13 | 4000 | 
c1ccc(Cc2ccc(OCCCn3ccc4ncnc-4c3)cc2)cc1 [356 C] | 48 | 100 | 
FC(F)(F)c1cccc(COc2ccc(OCCN3CCCC3)cc2)c1 [Example 209] | 0 | 3000 | 
c1ccc(COc2ccc(OCCn3cnc4ncccc43)cc2)cc1 [346 B] | 23 | 1900 | 
CCOC(=O)CC1CCN(CCOc2ccc(Cc3ccccc3)cc2)CC1 [Example 301] | 81 | 4500 | 
c1csc(Cc2ccc(OCCN3CCCC3)cc2)c1 [Example 133] | 49 | 10 | 
c1ccc(Cc2ccc(OCCn3cnc4ncncc43)cc2)cc1 [357 A] |  |  | inhibition in vivo at 10 mg/kg [1, 4]: 57%; IC50 [2]: 47 nM
O=C(CCNCCCCOc1ccc(Cc2ccccc2)cc1)OCc1ccccc1 [Example 273] | 100 | 610 | 
c1ccc(Oc2ccc(OCCn3cnc4ncccc43)cc2)cc1 [348 B] | 22 | 440 | 
NC(=O)N1CCN(CC2Cc3cc(Cc4ccccc4)ccc3O2)CC1 (centres unmarked) [Example 337] | 82 | 360 | 
CC(CN(C)CCCOc1ccc(Cc2ccccc2)cc1)C(=O)O (centres unmarked) [Example 432] | 85 | 140 | 
CCOC(=O)C1CCN(CC2Cc3cc(Oc4ccccc4)ccc3O2)CC1 (centres unmarked) [Example 291] | 67 | 8000 | 

Compound | inhibition in vivo at 10 mg/kg [1, 3] [%] | IC50 ([2]; recombinant hLTA4H) [nM] | further results
c1ccc(Oc2ccc(OCCn3ccc4ncnc-4c3)cc2)cc1 [349 C] | 52 | 13 | 
c1ccc(Cc2ccc(OCCN3CC4CCC3CC4)cc2)cc1 [Example 500] | 53 | 140 | 
NC(=O)C1CCN(CCOc2ccc(Cc3ccccc3)cn2)CC1 [Example 147] | 94 | 1060 | 
c1ccc(Cc2ccc(OCCNC3CCCCC3)cc2)cc1 [Example 240] | 33 | 1070 | 
Fc1ccc(Oc2ccc(OCCN3CCCC3)cc2)cc1 [Example 48, 1-[2-[4-(4-fluorophenoxy)phenoxy]ethyl]pyrrolidine] |  | 150 | inhibition in vivo at 10 mg/kg [1, 4]: 13%
C[C@H]1C[C@@H](O)CCN1CCOc1ccc(Cc2ccccc2)cc1 (relative stereo) [Example 465] | 38 | 300 | 
C#CC(CC(=O)OCC)NCCCOc1ccc(Cc2ccccc2)cc1 (centres unmarked) [Example 407] | 0 | 20000 | 
CCOC(=O)C1CCN(CCOc2ccc(Cc3cccc(F)c3)cc2)CC1 [Example 309] | 96 | 2500 | 
c1ccc(Cc2ccc(OC(Cc3ccccc3)CN3CCCC3)cc2)cc1 (centres unmarked) [Example 406] | 46 | 500 | 
CC(=O)N1CCN(CC2Cc3cc(Cc4ccccc4)ccc3O2)CC1 (centres unmarked) [Example 294] | 57 | 110 | 
c1ccc(Oc2ccc(OCCn3cnc4cnccc43)cc2)cc1 [349 B] | 48 | 300 | 
CC(=O)N[C@H]1C[C@@H](C)N(CCOc2ccc(Cc3ccccc3)cc2)[C@@H](C)C1 [Example 315] | 53 | 163 | 
CC(CN1CCCCCC1)Oc1ccc(Cc2ccccc2)cc1 (centres unmarked) [Example 404] | 52 | 1750 | 
c1ccc(Oc2ccc(OCCCn3cnc4ncccc43)cc2)cc1 [350 B] | 38 | 550 | 
NC(=O)C1CCN(CC2Cc3cc(Oc4ccccc4)ccc3O2)CC1 (centres unmarked) [Example 290] | 94 | 450 | 
Fc1ccc(Oc2ccc(OCCn3cnc4cnccc43)cc2)cc1 [355 B] | 37 | 870 | 
COC(=O)CCN(C)CCCOc1ccc(Cc2ccccc2)s1 [Example 375] |  | 900 | inhibition in vivo at 10 mg/kg [1, 6]: 67%
c1ccc(Oc2ccc(OCCn3cnc4cccnc43)cc2)cc1 [348 A] | 42 | 4600 | 
CNC(=O)C1CCN(CC2Cc3cc(Oc4ccccc4)ccc3O2)CC1 (centres unmarked) [Example 296] | 72 | 710 | 
N/C(=N\O)C1CCN(CC2Cc3cc(Cc4ccccc4)ccc3O2)CC1 (centres unmarked) [Example 446] | 70 | 35 | 

Compound | inhibition in vivo at 10 mg/kg [1, 3] [%] | IC50 ([2]; recombinant hLTA4H) [nM] | further results
CCC(CN1CCCC1)Oc1ccc(Cc2ccccc2)cc1 (centres unmarked) [Example 405] | 49 | 420 | 
CC(=O)N[C@@H]1CCN(CCOc2ccc(Cc3ccccc3)cc2)[C@@H](C)C1 (relative stereo) [Example 467] | 71 | 60 | 
[O-][n+]1ccc2c(c1)ncn2CCOc1ccc(Cc2ccccc2)cc1 [Example 365] |  |  | inhibition in vivo at 10 mg/kg [1, 4]: 72%; IC50 [2]: 82 nM
CCOC(=O)C1CCN(CCOc2ccc(Cc3ccccc3)s2)CC1 [Example 370] |  | 59000 | inhibition in vivo at 10 mg/kg [1, 6]: 96%
CNC(=O)CCNCCCOc1ccc(Cc2ccccc2)cc1 [Example 422] | 37 | 100 | 
c1ccc(Cc2ccc(OCCCN3CCCC3)cc2)cc1 [Example 259] |  | 100 | inhibition in vivo at 50 mg/kg [1, 5]: 35%
c1ccc(Oc2ccc(OCCCn3ccc4ncnc-4c3)cc2)cc1 [351 C] | 42 | 43 | 
c1ccc(Cc2ccc(OCCN3CC4CCC3C4)cc2)cc1 (centres unmarked) [Example 499] | 60 | 240 | 
O=C(CCNCCOc1ccc(Cc2ccccc2)cc1)OCc1ccccc1 [Example 266] | 29 | 6500 | 
c1ccc2ncc(Cc3ccc(OCCN4CCCC4)cc3)cc2c1 [Example 132] | 83 | 84 | 
CC1CCC(C)N1CCOc1ccc(Cc2ccccc2)cc1 (centres unmarked) [Example 399] | 30 | 100 | 
c1ccc(Cc2ccc3c(c2)CC(CN2CCCC2)O3)cc1 (centres unmarked) [Example 280] | 33 | 11 | 
CC1CC(c2nnn[nH]2)CCN1CCOc1ccc(Cc2ccccc2)cc1 (centres unmarked) [Example 451] | 90 | 6 | 
Fc1ccc(Oc2ccc(OCCn3cnc4ncccc43)cc2)cc1 [354 B] | 32 | 280 | 
[O-][n+]1cccc2c1ncn2CCOc1ccc(Cc2ccccc2)cc1 [Example 363] | 62 | 17 | 
c1ccc(COc2ccc(OCCn3cnc4ccncc43)cc2)cc1 [347 A] | 34 | 1800 | 
CCOC(=O)C1CCN(CCOc2ccc(Cc3cccs3)cc2)CC1 [Example 310] | 96 | 930 | 
CC(C)(O)CCNCCCOc1ccc(Cc2ccccc2)cc1 [Example 416] | 31 | 410 | 
